Data reported in patent US9458113B2 (Boehringer Ingelheim International GmbH, priority 2014, dated 2016).
pIC50: −log10 of the molar value.

Biological target: Human neutrophil elastase (Homo sapiens (Human), UniProt P08246)
Assay: Human Neutrophil Elastase Assay
Format: biochemical
Conditions: substrate MeOSuc-Ala-Ala-Pro-Val-AMC 250 μM, pH 7.5

Human neutrophil elastase, sequence (P08246 30-247): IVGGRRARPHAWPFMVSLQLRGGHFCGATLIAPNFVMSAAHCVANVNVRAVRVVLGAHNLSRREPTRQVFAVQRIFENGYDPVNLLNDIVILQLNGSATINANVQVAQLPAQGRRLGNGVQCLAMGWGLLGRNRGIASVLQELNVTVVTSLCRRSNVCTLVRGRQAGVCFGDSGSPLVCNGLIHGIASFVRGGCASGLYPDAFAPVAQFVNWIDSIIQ

| SMILES | pIC50 |
| --- | --- |
| CN1C(=O)N(c2cccc(C(F)(F)F)c2)C2=C(C(=O)CC2)C1c1ccc(C#N)cc1C(=O)NC(C)(C)C#N (stereo not shown) [Example 5, 5-Cyano-N-(cyano-dimethyl-methyl)-2-[3-methyl-2,5-dioxo-1-(3-trifluoromethyl-phenyl)-2,3,4,5,6,7-hexahydro-1H-cyclopentapyrimidin-4-yl]-benzamide] | 8.47 |
| CN1CCN(C(=O)c2cc(C#N)ccc2C2C3=C(CCCC3=O)N(c3cccc(C(F)(F)F)c3)C(=O)N2C)CC1 (stereo not shown) [Example 6.2] | 8.29 |
| CN1C(=O)N(c2cccc(C(F)(F)F)c2)C2=C(C(=O)CCC2)C1c1ccc(C#N)cc1C(=O)N1CCNCC1 (stereo not shown) [Example 6.3] | 8.46 |
| CN(C)C(=O)c1cc(C#N)ccc1C1C2=C(CCCC2=O)N(c2cccc(C(F)(F)F)c2)C(=O)N1C (stereo not shown) [Example 6.4] | 8.96 |
| CN1C(=O)N(c2ccnc(C(F)(F)F)c2)C2=C(C(=O)CC2)[C@H]1c1ccc(C#N)cc1C(N)=O [Example 8, 5-Cyano-2-[(R)-3-methyl-1-(2-trifluoromethyl-pyridin-4-yl)-2,5-dioxo-2,3,4,5,6,7-hexahydro-1H-cyclopentapyrimidin-4-yl]-benzamide] | 7.39 |
| CNC(=O)c1cc(C#N)ccc1C1C2=C(CCC2=O)N(c2ccnc(C(F)(F)F)c2)C(=O)N1C (stereo not shown) [Example 8.1] | 7.60 |
| CN(C)C(=O)c1cc(C#N)ccc1C1C2=C(CCC2=O)N(c2ccnc(C(F)(F)F)c2)C(=O)N1C (stereo not shown) [Example 8.2] | 7.77 |
| CN1C(=O)N(c2ccnc(C(F)(F)F)c2)C2=C(C(=O)CC2)C1c1ccc(C#N)cc1C(=O)N1CCCC1 (stereo not shown) [Example 8.3] | 7.48 |
| CN1C(=O)N(c2ccnc(C(F)(F)F)c2)C2=C(C(=O)CC2)C1c1ccc(C#N)cc1C(=O)N1CCCCC1 (stereo not shown) [Example 8.4] | 6.74 |
| CN1C(=O)N(c2ccnc(C(F)(F)F)c2)C2=C(C(=O)CC2)C1c1ccc(C#N)cc1C(=O)N1CCOCC1 (stereo not shown) [Example 8.5] | 7.15 |
| CN1C(=O)N(c2cccc(C(F)(F)F)c2)C2=C(C(=O)CC2)C1c1ccc(C#N)cc1-c1cnco1 (stereo not shown) [Example 10, 4-[3-Methyl-2,5-dioxo-1-(3-trifluoromethyl-phenyl)-2,3,4,5,6,7-hexahydro-1H-cyclopentapyrimidin-4-yl]-3-oxazol-5-yl-benzonitrile] | 8.92 |
| CN1C(=O)N(c2cccc(C(F)(F)F)c2)C2=C(C(=O)CC2)C1c1ccc(C#N)cc1-c1ccn(C)n1 (stereo not shown) [Example 11.1] | 8.06 |
| CN1C(=O)N(c2cccc(C(F)(F)F)c2)C2=C(C(=O)CC2)C1c1ccc(C#N)cc1-c1cncs1 (stereo not shown) [Example 11.3] | 8.72 |
| CN1C(=O)N(c2cccc(C(F)(F)F)c2)C2=C(C(=O)CC2)C1c1ccc(C#N)cc1C1=CCN(C(=O)OC(C)(C)C)C1 (stereo not shown) [Example 11.4, 3-{5-Cyano-2-[3-methyl-2,5-dioxo-1-(3-trifluoromethyl-phenyl)-2,3,4,5,6,7-hexahydro-1H-cyclopentapyrimidin-4-yl]-phenyl}-2,5-dihydro-pyrrole-1-carboxylic acid tert-butyl ester] | 8.60 |
| CN1C(=O)N(c2cccc(C(F)(F)F)c2)C2=C(C(=O)CC2)C1c1ccc(C#N)cc1C1=CCN(C(=O)OC(C)(C)C)CC1 (stereo not shown) [Example 11.6, 4-{5-Cyano-2-[3-methyl-2,5-dioxo-1-(3-trifluoromethyl-phenyl)-2,3,4,5,6,7-hexahydro-1H-cyclopentapyrimidin-4-yl]-phenyl}-3,6-dihydro-2H-pyridine-1-carboxylic acid tert-butyl ester] | 8.77 |
| CN1C(=O)N(c2cccc(C(F)(F)F)c2)C2=C(C(=O)CC2)C1c1ccc(C#N)cc1-c1ccn(C)c(=O)c1 (stereo not shown) [Example 11.7] | 8.92 |
| CN1C(=O)N(c2cccc(C(F)(F)F)c2)C2=C(C(=O)CC2)C1c1ccc(C#N)cc1-c1ccco1 (stereo not shown) [Example 11.8] | 8.48 |

| SMILES | pIC50 |
| --- | --- |
| CN1C(=O)N(c2cccc(C(F)(F)F)c2)C2=C(C(=O)CC2)C1c1ccc(C#N)cc1-c1ccncc1 (stereo not shown) [Example 11.9] | 9.00 |
| CN1C(=O)N(c2cccc(C(F)(F)F)c2)C2=C(C(=O)CC2)C1c1ccc(C#N)cc1-c1cccnc1 (stereo not shown) [Example 11.10] | 8.51 |
| CN1C(=O)N(c2cccc(C(F)(F)F)c2)C2=C(C(=O)CC2)C1c1ccc(C#N)cc1-c1ccc2c(cnn2C)c1 (stereo not shown) [Example 11.12] | 8.10 |
| COc1ccc(-c2cc(C#N)ccc2C2C3=C(CCC3=O)N(c3cccc(C(F)(F)F)c3)C(=O)N2C)cn1 (stereo not shown) [Example 11.13] | 8.41 |
| CN1C(=O)N(c2cccc(C(F)(F)F)c2)C2=C(C(=O)CC2)C1c1ccc(C#N)cc1-c1ccc2c(ccn2C)c1 (stereo not shown) [Example 11.14] | 8.22 |
| CN1C(=O)N(c2cccc(C(F)(F)F)c2)C2=C(C(=O)CC2)C1c1ccc(C#N)cc1-c1ccc2occc2c1 (stereo not shown) [Example 11.15] | 7.80 |
| CN1C(=O)N(c2cccc(C(F)(F)F)c2)C2=C(C(=O)CC2)C1c1ccc(C#N)cc1-c1ccc(=O)n(C)c1 (stereo not shown) [Example 11.16] | > 9.00 |
| CN1C(=O)N(c2cccc(C(F)(F)F)c2)C2=C(C(=O)CC2)C1c1ccc(C#N)cc1-c1nnco1 (stereo not shown) [Example 13, 4-[3-Methyl-2,5-dioxo-1-(3-trifluoromethyl-phenyl)-2,3,4,5,6,7-hexahydro-1H-cyclopentapyrimidin-4-yl]-3-[1,3,4]oxadiazol-2-yl-benzonitrile] | 8.68 |
| Cc1noc(-c2cc(C#N)ccc2C2C3=C(CCC3=O)N(c3cccc(C(F)(F)F)c3)C(=O)N2C)n1 (stereo not shown) [Example 13.2, 4-[3-Methyl-2,5-dioxo-1-(3-trifluoromethyl-phenyl)-2,3,4,5,6,7-hexahydro-1H-cyclopentapyrimidin-4-yl]-3-(3-methyl-[1,2,4]oxadiazol-5-yl)-benzonitrile] | 8.55 |
| CN1C(=O)N(c2cccc(C(F)(F)F)c2)C2=C(C(=O)CCC2)C1c1ccc(C#N)cc1-c1ccoc1 (stereo not shown) [Example 15, 3-Furan-3-yl-4-[3-methyl-2,5-dioxo-1-(3-trifluoromethyl-phenyl)-1,2,3,4,5,6,7,8-octahydro-quinazolin-4-yl]-benzonitrile] | 8.49 |
| CN1C(=O)N(c2cccc(C(F)(F)F)c2)C2=C(C(=O)CCC2)C1c1ccc(C#N)cc1-c1ccn(C)n1 (stereo not shown) [Example 15.1] | 8.55 |
| CN1C(=O)N(c2cccc(C(F)(F)F)c2)C2=C(C(=O)CCC2)C1c1ccc(C#N)cc1-c1cnn(C)c1 (stereo not shown) [Example 15.2] | 8.62 |
| CN1C(=O)N(c2cccc(C(F)(F)F)c2)C2=C(C(=O)CCC2)C1c1ccc(C#N)cc1-c1cncs1 (stereo not shown) [Example 15.3] | 8.72 |
| CN1C(=O)N(c2cccc(C(F)(F)F)c2)C2=C(C(=O)CCC2)C1c1ccc(C#N)cc1-c1cn[nH]c1 (stereo not shown) [Example 15.4] | 8.80 |
| CN1C(=O)N(c2cccc(C(F)(F)F)c2)C2=C(C(=O)CCC2)C1c1ccc(C#N)cc1-c1ccco1 (stereo not shown) [Example 15.5] | 8.24 |
| CN1C(=O)N(c2cccc(C(F)(F)F)c2)C2=C(C(=O)CCC2)C1c1ccc(C#N)cc1C1=CCN(C(=O)OC(C)(C)C)C1 (stereo not shown) [Example 15.6] | 7.97 |
| CN1C(=O)N(c2cccc(C(F)(F)F)c2)C2=C(C(=O)CCC2)C1c1ccc(C#N)cc1C1=CCNCC1 (stereo not shown) [Example 16, 4-[3-Methyl-2,5-dioxo-1-(3-trifluoromethyl-phenyl)-1,2,3,4,5,6,7,8-octahydro-quinazolin-4-yl]-3-(1,2,3,6-tetrahydro-pyridin-4-yl)-benzonitrile] | > 9.00 |

The remaining lines, values ahead:

| pIC50 | SMILES |
| --- | --- |
| 8.12 | CN1C(=O)N(c2cccc(C(F)(F)F)c2)C2=C(C(=O)CC2)C1c1ccc(C#N)cc1C(=O)N1CCNCC1 (stereo not shown) [Example 4] |
| 8.80 | CN1C(=O)N(c2cccc(C(F)(F)F)c2)C2=C(C(=O)CCC2)C1c1ccc(C#N)cc1C(N)=O (stereo not shown) [Example 6, 5-Cyano-2-[3-methyl-2,5-dioxo-1-(3-trifluoromethyl-phenyl)-1,2,3,4,5,6,7,8-octahydro-quinazolin-4-yl]-benzamide] |
| 8.54 | CN1C(=O)N(c2cccc(C(F)(F)F)c2)C2=C(C(=O)CCC2)C1c1ccc(C#N)cc1C(=O)N1CCOCC1 (stereo not shown) [Example 6.1] |
| 8.85 | CN1C(=O)N(c2cccc(C(F)(F)F)c2)C2=C(C(=O)CC2)C1c1ccc(C#N)cc1CN1CCOCC1 (stereo not shown) [Example 9, 4-[3-Methyl-2,5-dioxo-1-(3-trifluoromethyl-phenyl)-2,3,4,5,6,7-hexahydro-1H-cyclopentapyrimidin-4-yl]-3-morpholin-4-ylmethyl-benzonitrile] |
| 8.68 | CC(C)NCc1cc(C#N)ccc1C1C2=C(CCC2=O)N(c2cccc(C(F)(F)F)c2)C(=O)N1C (stereo not shown) [Example 9.1] |
| 8.48 | CN1C(=O)N(c2cccc(C(F)(F)F)c2)C2=C(C(=O)CC2)C1c1ccc(C#N)cc1CNC(C)(C)C (stereo not shown) [Example 9.2] |
| 8.54 | CN1C(=O)N(c2cccc(C(F)(F)F)c2)C2=C(C(=O)CC2)C1c1ccc(C#N)cc1CNC1CCOCC1 (stereo not shown) [Example 9.3] |
| 8.66 | CNCc1cc(C#N)ccc1C1C2=C(CCC2=O)N(c2cccc(C(F)(F)F)c2)C(=O)N1C (stereo not shown) [Example 9.4] |
| 8.48 | CN1C(=O)N(c2cccc(C(F)(F)F)c2)C2=C(C(=O)CC2)C1c1ccc(C#N)cc1-c1ccoc1 (stereo not shown) [Example 11, 3-Furan-3-yl-4-[3-methyl-2,5-dioxo-1-(3-trifluoromethyl-phenyl)-2,3,4,5,6,7-hexahydro-1H-cyclopentapyrimidin-4-yl]-benzonitrile] |
| > 9.00 | CN1C(=O)N(c2cccc(C(F)(F)F)c2)C2=C(C(=O)CC2)C1c1ccc(C#N)cc1C1=CCCO1 (stereo not shown) [Example 11.5] |
| > 9.00 | CN1C(=O)N(c2cccc(C(F)(F)F)c2)C2=C(C(=O)CC2)C1c1ccc(C#N)cc1C1=CCOCC1 (stereo not shown) [Example 11.11] |
| > 9.00 | CN1C(=O)N(c2cccc(C(F)(F)F)c2)C2=C(C(=O)CC2)C1c1ccc(C#N)cc1C1=CCNC1 (stereo not shown) [Example 14, 3-(2,5-Dihydro-1H-pyrrol-3-yl)-4-[3-methyl-2,5-dioxo-1-(3-trifluoromethyl-phenyl)-2,3,4,5,6,7-hexahydro-1H-cyclopentapyrimidin-4-yl]-benzonitrile] |
| > 9.00 | CN1C(=O)N(c2cccc(C(F)(F)F)c2)C2=C(C(=O)CC2)C1c1ccc(C#N)cc1C1=CCNCC1 (stereo not shown) [Example 14.2] |
| 8.89 | CN1C(=O)N(c2cccc(C(F)(F)F)c2)C2=C(C(=O)CCC2)C1c1ccc(C#N)cc1C1=CCOCC1 (stereo not shown) [Example 15.9] |
| 8.82 | CN1C(=O)N(c2cccc(C(F)(F)F)c2)C2=C(C(=O)CCC2)C1c1ccc(C#N)cc1C1=COCC1 (stereo not shown) [Example 15.10] |
